Data from PubChem BioAssay (NCI).
Values joined by “and” are separate entries in the source; they are usually repeats but may differ in a detail not shown here. Equal values may be shown once.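 Interpolation was linear, between the two tested concentrations surrounding the appropriate level; five concentrations were tested over 48 hours in 96-well plates. GI50 is the concentration that inhibits growth by half. Definition used: TGI = concentration required for complete inhibition of growth.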

Assays:
Experiment in all cases: DTP human tumour cell line panel, 48 h
[1] = tested on: SNB-78 CNS
[2] = tested on: HOP-18 NSCLC
[3] = tested on: DMS 273 small cell lung
[4] = tested on: M19-MEL melanoma
[5] = tested on: MDA-MB-231 breast
[6] = tested on: MCF7 breast
[7] = tested on: DU-145 prostate
[8] = tested on: HS 578T breast
[9] = tested on: NCI/ADR-RES ovarian
[10] = tested on: BT-549 breast

`CC1S(=O)(=O)OCCOS1(=O)=O` showed a TGI [1] of over 100 µM, a TGI [2] of over 100 µM and a TGI [3] of over 100 µM. It also gave a TGI [4] of over 100 µM.
Molecule `Cc1cc2c3ccccc3n(C)c2c2c1C(=O)C=CC2=O` has a TGI [1] of 49.1 µM, a TGI [5] of 32.7 µM and a TGI [6] of 17.5 µM. For the same molecule, the TGI [7] was 44.5 µM, the TGI [3] was 29.1 µM and the TGI [4] was 33.4 µM. The TGI [8] was 55.2 µM, the TGI [9] was over 100 µM and the TGI [10] was 46.4 µM.
With `NNC(=O)CCC(=O)NC1C2CC3CC(C2)CC1C3` (stereo not drawn) the TGI [1] was over 100 µM, the TGI [3] was over 100 µM and the TGI [4] was over 100 µM.
`COc1ccc(NC(=O)c2cc(OC)c(OC)c(OC)c2)cc1` was tested, and the TGI [1] was over 100 µM, the TGI [2] was over 100 µM and the TGI [3] was over 100 µM. The TGI [4] was over 100 µM.
`CCCCCCCCCCCCCC(=O)CBr` gave a TGI [1] of 30.9 µM, a TGI [5] of 34.2 µM and a TGI [6] of 30.2 µM. The TGI [2] was 29.3 µM, the TGI [7] was 33.7 µM and the TGI [4] was 23.5 µM. For the same molecule, the TGI [8] was 52.4 µM and the TGI [10] was 22.6 µM.
In the case of `COc1ccc2oc3cccc(NCCN(C)C)c3c(=O)c2c1`, the TGI [1] is reported as 36 µM, the TGI [2] is reported as 24 µM and the TGI [3] is reported as 25.3 µM. For the same molecule, the TGI [4] was 29.9 µM.
With `CCC12CCCC(=O)N1C(CO)C(c1ccccc1)O2` (stereo not drawn) the TGI [1] was over 100 µM, the TGI [2] was over 100 µM and the TGI [3] was over 100 µM. It also gave a TGI [4] of over 100 µM.
In the case of `N#CC(C(=O)C(=O)NCCCNC(=O)C(=O)C(C#N)c1ccccc1)c1ccccc1` (stereo not drawn), the TGI [1] is reported as over 100 µM, the TGI [2] is reported as over 100 µM and the TGI [3] is reported as over 100 µM. It also gave a TGI [4] of over 100 µM.
`Cn1nc(-c2ccccc2)c(C(=O)/C=C/c2ccccc2)c(N2CCOCC2)c1=O` showed a TGI [2] of 89.7 µM, a TGI [3] of 51.4 µM and a TGI [4] of 61.2 µM.
Work on `N[C@H](C(=O)O)[C@H](Cl)CC(=O)O` yielded a TGI [1] of over 100 µM, a TGI [2] of over 100 µM and a TGI [3] of over 100 µM. The TGI [4] was over 100 µM.
Work on `COc1ccc2c(c1)OC(N(C(C)=O)C(C)=O)=C(C#N)C2c1ccc(F)cc1` (stereo not drawn) yielded a GI50 [5] of 2.4 µM, a TGI [5] of over 100 µM and a GI50 [6] of 0.593 µM. It also gave a TGI [6] of over 100 µM, a GI50 [7] of 2.85 µM and a TGI [7] of over 100 µM. It also gave a GI50 [8] of 5.19 µM, a TGI [8] of over 100 µM and a GI50 [9] of 0.953 µM. The TGI [9] was over 100 µM, the GI50 [10] was 2.22 µM and the TGI [10] was 40.2 µM.
Molecule `CC(CNC(Cc1ccccc1)c1ccccc1)NC(Cc1ccccc1)c1ccccc1` (stereo not drawn) has a GI50 [5] of 1.81 µM, a TGI [5] of 3.7 µM and a GI50 [6] of 2.08 µM. It also gave a TGI [6] of 5.16 µM, a GI50 [7] of 3.95 µM and a TGI [7] of 14.7 µM. For the same molecule, the GI50 [8] was 2.64 µM, the TGI [8] was 8.27 µM and the GI50 [9] was 1.83 µM. It also gave a TGI [9] of 4.17 µM, a GI50 [10] of 2.01 µM and a TGI [10] of 5.16 µM.
`C[C@H]1[C@H](C)CC[C@]2(C(=O)O)CC[C@]3(C)C(=CC[C@@H]4[C@@]5(C)C/C(=C/c6cccnc6)[C@H](O)C(C)(C)[C@@H]5CC[C@]43C)[C@H]12` gave a GI50 [5] of 22.5 µM, a TGI [5] of 72.1 µM and a GI50 [6] of 12.1 µM. It also gave a TGI [6] of over 100 µM, a GI50 [7] of 15.4 µM and a TGI [7] of over 100 µM. The GI50 [8] was 28.8 µM, the TGI [8] was over 100 µM and the GI50 [9] was 18.5 µM. The TGI [9] was 68.5 µM, the GI50 [10] was 18.3 µM and the TGI [10] was over 100 µM.
`CC(=O)O[C@@H]1CC2C(C)(C)CCCC2(C)C2=C1C(=O)C(C(C)C)=CC2=O` (stereo partly drawn) was tested, and the GI50 [5] was 0.657 µM, the TGI [5] was 3.13 µM and the GI50 [6] was 1.05 µM. For the same molecule, the TGI [6] was over 100 µM, the GI50 [7] was 1.09 µM and the TGI [7] was 2.48 µM. It also gave a GI50 [8] of 1.79 µM, a TGI [8] of over 100 µM and a GI50 [9] of 2.96 µM. For the same molecule, the TGI [9] was over 100 µM, the GI50 [10] was 0.621 µM and the TGI [10] was 3.05 µM.
Work on `CCCCCCCCCCCCCCCC(=O)OCC1OC(n2c(O)c(N=NC(N)=S)c3ccc([N+](=O)[O-])cc32)C(OC(C)=O)C1OC(C)=O` (stereo not drawn) yielded a TGI [1] of over 100 µM, a TGI [2] of over 100 µM and a TGI [3] of over 100 µM. The TGI [4] was over 100 µM.
`CC(=O)c1cc([N+](=O)[O-])ccc1OCC(=O)O` was tested, and the TGI [1] was over 100 µM, the TGI [3] was over 100 µM and the TGI [4] was over 100 µM.
`O=C(CN1CCN(c2ccccc2)CC1)N1CCc2c([nH]c3ccccc23)C1c1cccnc1` (stereo not drawn) showed a TGI [1] of over 100 µM, a TGI [2] of over 100 µM and a TGI [3] of over 100 µM. For the same molecule, the TGI [4] was over 100 µM.
Molecule `CC1=C(O)C(=O)C2C(=O)C1C(C)C2c1ccc(Cl)cc1` (stereo not drawn) has a TGI [1] of over 100 µM, a TGI [3] of over 100 µM and a TGI [4] of over 100 µM.
In the case of `COc1cc(/C=C/C(=O)c2sc(Nc3ccccc3)nc2C)ccc1O`, the TGI [1] is reported as over 100 µM, the TGI [2] is reported as over 100 µM and the TGI [3] is reported as over 100 µM. For the same molecule, the TGI [4] was over 100 µM.
For `OCc1ccc(-c2nn(Cc3ccccc3)c3ccccc23)o1`, the GI50 [5] was 19.6 µM and 22.2 µM, the TGI [5] was 60.3 µM and 55.2 µM and the GI50 [6] was 4.08 µM and 1.69 µM. The TGI [6] was 24.8 µM and 57.1 µM, the GI50 [7] was 16.6 µM and 17.8 µM and the TGI [7] was 36.9 µM and 43.8 µM. The GI50 [8] was 17.8 µM and 15.9 µM, the TGI [8] was > 69.9 µM and 42.4 µM and the GI50 [9] was 19.2 µM and 11.5 µM. The TGI [9] was 67.1 µM and 49.6 µM, the GI50 [10] was 17.3 µM and 22.7 µM and the TGI [10] was 37.4 µM and 53 µM.
For `CC/C=C\C/C=C\C/C=C\CCCCCCCC(=O)OCC`, the TGI [2] was over 100 µM and the TGI [4] was over 100 µM.
In the case of `COc1nc2nccc-2c2occn12`, the TGI [1] is reported as over 100 µM, the TGI [2] is reported as over 100 µM and the TGI [3] is reported as over 100 µM. The TGI [4] was over 100 µM.
In the case of `Cc1ccc(NC(=O)/C(=N\Nc2ccc([N+](=O)[O-])cc2[N+](=O)[O-])C2C(=O)NC(=O)NC2=O)cc1`, the TGI [1] is reported as over 100 µM, the TGI [2] is reported as over 100 µM and the TGI [4] is reported as over 100 µM.
In the case of `CN(C)CCCN1CCc2c([nH]c3ccccc23)C1c1cccnc1` (stereo not drawn), the TGI [1] is reported as over 100 µM, the TGI [3] is reported as over 100 µM and the TGI [4] is reported as over 100 µM.
`CC(=O)Oc1ccc(O)c(O)c1C/C=C(\C)CC/C=C(\C)CC/C=C(\C)CCC=C(C)C` gave a TGI [1] of 1.34 µM, a TGI [2] of 0.879 µM and a TGI [3] of 0.817 µM. It also gave a TGI [4] of 1.81 µM.
`CCCCN(Cc1ccc(F)cc1)c1ccc(CO)c(Cl)c1` showed a GI50 [5] of 14.8 µM, a TGI [5] of 29 µM and a GI50 [6] of 2.3 µM. The TGI [6] was 15 µM, the GI50 [7] was 17 µM and the TGI [7] was 31.3 µM. It also gave a GI50 [8] of 17.7 µM, a TGI [8] of 40.9 µM and a GI50 [9] of 14.1 µM. The TGI [9] was 29.3 µM, the GI50 [10] was 19.1 µM and the TGI [10] was 34.6 µM.
In the case of `Cc1ccc(C(O)c2cnc(C)n2Cc2ccccc2)cc1` (stereo not drawn), the TGI [5] is reported as over 100 µM, the TGI [6] is reported as over 100 µM and the TGI [7] is reported as over 100 µM. It also gave a TGI [8] of over 100 µM, a TGI [9] of over 100 µM and a TGI [10] of over 100 µM.
For `N#C/C(=C\c1cccc(O)c1)C(N)=O`, the TGI [1] was over 100 µM, the TGI [3] was over 100 µM and the TGI [4] was over 100 µM.
For `O=C1C2=C(c3ccccc31)C(c1ccccc1)NC(=S)N2` (stereo not drawn), the TGI [3] was over 100 µM and the TGI [4] was over 100 µM.
Molecule `C=C1CC[C@@H]2[C@](C)(COC(C)=O)[C@H](OC(C)=O)CC[C@@]2(C)[C@@H]1CC(Nc1ccc(S(=O)(=O)Nc2nccc(C)n2)cc1)C1=CCOC1=O` (stereo partly drawn) has a GI50 [5] of 3.62 µM, a TGI [5] of 10.2 µM and a GI50 [6] of 2.27 µM. The TGI [6] was 12.5 µM, the GI50 [7] was 3.36 µM and the TGI [7] was 11.8 µM. For the same molecule, the GI50 [8] was 6.65 µM, the TGI [8] was 43 µM and the GI50 [9] was 2.94 µM. The TGI [9] was 13.5 µM, the GI50 [10] was 2.3 µM and the TGI [10] was 5.61 µM.
For `O=C(O)c1cc(=O)c2[nH]c3ccccc3c2s1`, the TGI [1] was over 100 µM and the TGI [4] was over 100 µM.
